{"source": "PubChem BioAssay AID1581", "note": "Results filed as inconclusive are left out."}
{"biological_target": "PAR-4 (PAWR) - atypical PKC interaction", "experiment": "PAR4-aPKC binding disruptors (AID 1581)", "settings": "PAR4-aPKC protein interaction assay, normalized signal", "units": {"EC50": "µM"}}
{"smiles": "CO[C@@]1(NC(=O)C(C(=O)O)c2ccc(O)cc2)C(=O)N2C(C(=O)O)=C(CSc3nnnn3C)CO[C@@H]21", "note": "(some centres not stated)", "EC50": 11}
{"smiles": "O=c1c(O)c(-c2ccc(O)cc2O)oc2cc(O)cc(O)c12", "EC50": 10}
{"smiles": "O=C1C=CC(=O)c2c(O)cccc21", "EC50": 18}
{"smiles": "C=Cc1c(C)c2cc3[nH]c(cc4nc(cc5nc(cc1[nH]2)C(C)=C5CCC(=O)O)C(CCC(=O)O)=C4C)c(C)c3C=C", "EC50": 14}
{"smiles": "O=c1c(O)cc2c(O)oc3c(=O)c(O)cc4c3c2c1CC=4O", "EC50": 21}
{"smiles": "N[C@@H](Cc1ccc(O)c(O)c1)C(=O)O", "EC50": 13}
{"smiles": "NC[C@H](O)c1ccc(O)c(O)c1", "EC50": 29}
